Like-named read-outs stand apart in the source and are kept apart here. Marks after values point to notes of the source that are not given here.
How the values were obtained:
[1] = tested on: sorbitol accumulation in rat lens; test: Lens culture and intracellular sorbitol measurement (ex vivo); format: cell-based, Sprague-Dawley rats; conditions: 25 mM glucose, 6 days, sample 5 μg/mL, mean ± SD (n = 3); for inhibition at 5 µg/mL: 144 h
[2] = biological target: T1, human recombinant aldose reductase (HRAR) (Homo sapiens, UniProt P15121); test: Enzyme kinetics of HRAR inhibition (Lineweaver-Burk and Dixon plots); format: biochemical; conditions: for HRAR Mode of Inhibition: Lineweaver-Burk plot
T1 construct: purchased Wako Chemicals (Osaka, Japan)
Method: (§1) Enzyme inhibition with different concentrations ([…]) was assessed by monitoring the effects of different concentrations of the substrate. The following concentrations of test ginsenosides were used in the RLAR kinetics analysis: 0, 2, 10, and 50 µM for protopanaxadiol; 0, 0.5, 2.5, and 10 µM for (20S) ginsenoside Rg3; 0, 0.5, 2.5, and 10 µM for (20R) ginsenoside Rg3; 0, 0.1, 0.5, and 2.5 µM for ginsenoside Rh2; 0, 2, 10, and 50 µM for protopanaxatriol; 0, 0.8, 4, and 20 µM for ginsenoside Rf; 0, 0.8, 4, and 20 µM for (20S) ginsenoside Rg2, and 0, 0.5, 2.5, and 10 µM for ginsenoside Rh1. Using Lineweaver-Burk double reciprocal plots, the inhibition type was determined using various concentrations of DL-glyceraldehyde (5, 10, and 20 mM) for HRAR as a substrate in the presence of different concentrations of the active test ginsenosides. The concentrations of test ginsenosides in the HRAR kinetics analysis were as follows: 0, 0.1, 0.5, and 2.5 µM for protopanaxadiol; 0, 0.5, 2, and 10 µM for (20S) ginsenoside Rg3; 0, 1, 5, and 20 µM for (20R) ginsenoside Rg3; 0, 0.5, 2.5, and 10 µM for ginsenoside Rh2; 0, 0.1, 0.5, and 2.5 µM for compound K; 0, 1, 5, and 10 µM for protopanaxatriol; 0, 0.5, 4, and 20 µM for (20R) ginsenoside Rg2, and 0, 0.2, 2, and 5 µM for ginsenoside Rh1. The Dixon plot is a graphical method [1/enzyme velocity (1/V)] against inhibitor concentration [I] used to determine the type of enzyme inhibition; it was used to identify the dissociation or inhibition constant (Ki) for the enzyme-inhibitor complex. Dixon plots (single reciprocal plots) for RLAR and HRAR inhibition were obtained in the presence of 100, 50, and 10 mM RLAR, and 20, 10, and 5 mM HRAR DL-glyceraldehyde substrate. Thus, the type of enzyme inhibition was determined by interpreting the Lineweaver-Burk plots, and the inhibition constants (Ki) were determined by interpreting the Dixon plots.

[3] = biological target: T2, rat lens aldose reductase (RLAR) (Rattus norvegicus, UniProt P07943); test: RLAR inhibitory activity assay (rat lens homogenate, DL-glyceraldehyde substrate); format: biochemical
T2 construct: from tissue; host or cells: lens of Sprague-Dawley rats (supernatant of homogenate)
Method: A rat lens homogenate was prepared with minor modifications according to the method reported by Hayman et al.. Briefly, the lenses were removed from the eyes of Sprague-Dawley rats weighing 250–280 g. They were homogenized in sodium phosphate buffer (pH 6.2) that was prepared with dibasic sodium phosphate (Na2HPO4∙H2O, 0.66 g) and monobasic sodium phosphate (NaH2PO4∙H2O, 1.27 g) in 100 mL of double-distilled H2O. The homogenate was clarified by centrifugation at 10,000 rpm at 4 °C for 20 min and the resultant supernatant was frozen until use. A crude AR homogenate with a specific activity of 6.5 U/mg was used in all enzyme inhibition evaluations. The reaction solution consisted of 620 µL of 100 mM sodium phosphate buffer (pH 6.2), 90 µL of AR homogenate, 90 µL of 1.6 mM NADPH, and 9 µL of sample, while the substrate included 90 µL of 50 mM DL-glyceraldehyde. […] AR activity was determined by measuring the decrease in NADPH absorption at 340 nm over a 4 min period on an Ultrospec®2100pro UV/Visible spectrophotometer. SWIFT II Applications software (Amersham Biosciences, NJ, USA) was used for all data analyses. The inhibition percentage (%) was calculated as follows in Equation (1):[1 − (∆Asample/min − ∆Ablank/min)/(∆Acontrol/min − ∆Ablank/min)] × 100(1) in which ∆Asample/min represents the test sample and substrate’s reduction in absorbance over 4 min, and ∆A control/min represents the same reduction in absorbance, but with 100% DMSO (dimethyl sulfoxide) rather than the test sample.

[4] = biological target: T1, human recombinant aldose reductase (HRAR); test: HRAR inhibition assay (DL-glyceraldehyde substrate); format: biochemical
Method: HRAR inhibition was studied according to Nishimura et al.. AR action was studied by measuring the reduction in NADPH absorption at 340 nm over a period of 1 min on a UV/visible spectrophotometer (Ultrospec®2100pro, Biochrom, Holliston, MA, USA). For HRAR inhibition, the HRAR enzyme (0.4 units), was used in all enzyme inhibition evaluations. […] The inhibition percentage (%) was measured as designated in the RLAR assay. The DA sample/min value characterizes the decrease in absorbance for 1 min with the test samples and substrate. The ability of each sample to inhibit HRAR was observed as an IC50 value (µM) and measured from the log-dose inhibition curve.

[5] = biological target: T2, rat lens aldose reductase (RLAR); test: Enzyme kinetics of RLAR inhibition (Lineweaver-Burk and Dixon plots); format: biochemical; conditions: for RLAR Mode of Inhibition: Lineweaver-Burk plot
Method: as §1

[6] = Dixon plots, single inhibition constant, read-out: HRAR Ki
[7] = rat lens homogenate, substrate DL-glyceraldehyde, mean ± S.E.M. of triplicate experiments, read-out: RLAR IC50
[8] = substrate DL-glyceraldehyde, mean ± S.E.M. of triplicate experiments, read-out: HRAR IC50
[9] = Dixon plots, read-out: RLAR Kic (binding constant of inhibitor with free enzyme)

Compound | Sorbitol Content (mg)/Lens Wet Weight (g) [1] | Ki [2, 6] [µM] | HRAR Mode of Inhibition [2] | IC50 [3, 7] [µM] | IC50 [4, 8] [µM] | inhibition at 5 µg/mL ([1]; Rattus norvegicus) [%] | HRAR Kiu (binding constant of inhibitor with enzyme-substrate complex) ([2]; Dixon plots) [µM] | RLAR Mode of Inhibition [5] | RLAR Kiu (binding constant of inhibitor with enzyme-substrate complex) ([5]; Dixon plots) [µM] | Ki [5, 9] [µM] | Ki [2] [µM] | IC50 [3] [µM] | IC50 [4] [µM] | Ki [5] [µM] | further results
CC(C)=CCCC(C)(O)C1CCC2(C)C1C(O)CC1C3(C)CCC(O)C(C)(C)C3C(OC3OC(CO)C(O)C(O)C3OC3OC(C)C(O)C(O)C3O)CC12C [(20R) ginsenoside Rg2] | 0.83 ± 0.01 ^c mg/g | 11.7 | Non-competitive | 29.4 ± 2.33 | 13.7 ± 0.99 | – | – | – | – | – | – | – | – | – | Inhibition (%) of sorbitol accumulation in rat lens [1]: 51.74 ± 2.99 ^c %
CC(C)=CCCC(C)(O)C1CCC2(C)C1C(O)CC1C3(C)CCC(OC4OC(CO)C(O)C(O)C4OC4OC(CO)C(O)C(O)C4O)C(C)(C)C3CCC12C [(20R) ginsenoside Rg3] | 0.89 ± 0.01 ^c mg/g | – | Mixed type | – | – | 48.2 ± 3.99 | 17.99 | Competitive type | – | – | – | – | – | – | Ki ([2]; read-out: HRAR Kic (binding constant of inhibitor with free enzyme), Dixon plots): 11.1 µM; IC50 ([3]; read-out: RLAR IC50, rat lens homogenate, substrate DL-glyceraldehyde, mean ± S.E.M. of triplicate experiments): 4.28 ± 0.31 µM; IC50 ([4]; read-out: HRAR IC50, substrate DL-glyceraldehyde, mean ± S.E.M. of triplicate experiments): 8.67 ± 0.87 µM; RLAR Mode of Inhibition ([5]; listed as (20R) Rg3): competitive; Ki ([5]; read-out: RLAR Ki, Dixon plots, single inhibition constant): 3.69 µM
CC(C)=CCCC(C)(O)C1CCC2(C)C1C(O)CC1C3(C)CCC(O)C(C)(C)C3C(OC3OC(CO)C(O)C(O)C3OC3OC(C)C(O)C(O)C3O)CC12C [(20S) ginsenoside Rg2] | 0.73 ± 0.01 ^c mg/g | – | – | 14.4 ± 0.99 | 15.7 ± 1.05 | 57.5 ± 5.11 | – | Mixed type | 17.04 | 10.8 | – | – | – | – | –
CC(C)=CCC[C@](C)(O)C1CC[C@]2(C)[C@@H]1[C@H](O)CC1[C@@]3(C)CC[C@H](O[C@@H]4O[C@H](CO)[C@@H](O)[C@H](O)[C@H]4O[C@@H]4O[C@H](CO)[C@@H](O)[C@H](O)[C@H]4O)C(C)(C)C3CC[C@]12C (stereo partly drawn) [(20S) ginsenoside Rg3] | 0.37 ± 0.01 ^b mg/g | – | Competitive type | – | – | 78.5 ± 4.27 | – | Competitive type | – | – | 8.06 | 1.25 ± 0.28 | 9.92 ± 0.56 | 1.97 | RLAR Mode of Inhibition ([5]; listed as (20S) Rg3): competitive
CC(C)=CCC[C@](C)(O[C@@H]1O[C@H](CO)[C@@H](O)[C@H](O)[C@H]1O)C1CC[C@]2(C)[C@@H]1[C@H](O)CC1[C@@]3(C)CC[C@H](O)C(C)(C)C3CC[C@]12C (some centres unmarked) [Compound K] | 0.46 ± 0.01 ^b mg/g | 1.59 | Competitive type | 41.5 ± 3.99 | 2.23 ± 0.54 | 73.2 ± 8.11 | – | – | – | – | – | – | – | – | HRAR Mode of Inhibition ([2]; listed as compound K): competitive
CC(C)=CCC[C@](C)(O)[C@H]1CC[C@]2(C)[C@@H]1[C@H](O)C[C@@H]1[C@@]3(C)CC[C@H](O)C(C)(C)[C@@H]3[C@@H](O[C@@H]3O[C@H](CO)[C@@H](O)[C@H](O)[C@H]3O[C@@H]3O[C@H](CO)[C@@H](O)[C@H](O)[C@H]3O)C[C@]12C [Ginsenoside Rf] | 0.28 ± 0.01 ^a mg/g | – | – | 11.3 ± 1.49 | 19.5 ± 1.55 | 83.7 ± 4.88 | – | Mixed type | 18.60 | 11.2 | – | – | – | – | –
CC(C)=CCC[C@](C)(O)[C@H]1CC[C@]2(C)[C@@H]1[C@H](O)C[C@@H]1[C@@]3(C)CC[C@H](O)C(C)(C)[C@@H]3[C@@H](O[C@@H]3O[C@H](CO)[C@@H](O)[C@H](O)[C@H]3O)C[C@]12C [Ginsenoside Rh1] | 0.10 ± 0.01 ^a mg/g | – | Mixed type | – | – | – | 8.31 | Competitive type | – | – | 3.4 | 7.28 ± 0.27 | 4.66 ± 0.34 | 5.39 | inhibition at 5 µg/mL [1]: 94.2 ± 4.71%; RLAR Mode of Inhibition ([5]; listed as Rh1): competitive
CC(C)=CCC[C@](C)(O)[C@H]1CC[C@]2(C)[C@@H]1[C@H](O)C[C@@H]1[C@@]3(C)CC[C@H](O[C@@H]4O[C@H](CO)[C@@H](O)[C@H](O)[C@H]4O)C(C)(C)[C@@H]3CC[C@]12C [Ginsenoside Rh2] | 0.05 ± 0.01 ^a mg/g | – | Mixed type | – | – | – | 9.22 | Competitive type | – | – | 3.63 | 0.67 ± 0.01 | 7.44 ± 0.55 | 0.43 | inhibition at 5 µg/mL [1]: 97.1 ± 5.41%; RLAR Mode of Inhibition ([5]; listed as Rh2): competitive
CC(C)=CCC[C@](C)(O)C1CC[C@]2(C)[C@@H]1[C@H](O)CC1[C@@]3(C)CC[C@H](O)C(C)(C)C3CC[C@]12C (some centres unmarked) [Protopanaxadiol] | 0.06 ± 0.01 ^a mg/g | 0.72 | Competitive type | 21.4 ± 2.45 | 0.36 ± 0.1 | 96.5 ± 2.91 | – | Mixed type | 37.39 | 18.8 | – | – | – | – | HRAR Mode of Inhibition ([2]; listed as protopanaxadiol): competitive
CC(C)=CCC[C@](C)(O)[C@H]1CC[C@]2(C)[C@@H]1[C@H](O)C[C@@H]1[C@@]3(C)CC[C@H](O)C(C)(C)[C@@H]3[C@@H](O)C[C@]12C [Protopanaxatriol] | 0.09 ± 0.01 ^a mg/g | 2.61 | Competitive type | 27.9 ± 1.19 | 1.43 ± 0.14 | 94.8 ± 3.46 | – | Non-competitive type | – | – | – | – | – | – | HRAR Mode of Inhibition ([2]; listed as protopanaxatriol): competitive; Ki ([5]; Dixon plots, single inhibition constant, read-out: RLAR Ki): 28.9 µM; RLAR Mode of Inhibition ([5]; listed as protopanaxatriol): non-competitive
